These results are taken from patent US20260355318A1, “MOLECULAR MACHINES FOR TREATMENT OF CANCER, FUNGAL INFECTIONS, OR BACTERIAL INFECTIONS” (priority 2022, published 2026).

Series [1] deals with C. albicans. As to the kind of experiment: Time-kill assay, C. albicans. It is filed as cell-based, Candida albicans. As for the experimental part:
(§1) For yeasts, five independent colonies were collected from 24-h SDAE plates, inoculated into yeast peptone with 2% dextrose (YPD), and grown for 24 h at 30 °C. Cells were then sub-cultured in fresh medium and grown for ~9 h. Afterward, the cells were centrifuged (5,000 ×g, 5 min), washed, and resuspended in phosphate-buffered saline (PBS) to ~10^6 CFU mL^−1. For A. fumigatus, conidia suspensions (~10^4 CFU mL^−1) were prepared in PBS as previously described.
(§2) Amphotericin B (AMB, 4×MIC) controls were prepared likewise, but light was omitted. Aliquots were collected in 1-min increments for up to 10 min, serially diluted in PBS, and plated on SDAE medium. Plates were incubated at 30 ° C for 48 h with confirmation after 72 h (yeasts) or at 28 ° C for 7 days with confirmation after 14 days (A. fumigatus), after which the CFU number was determined. The results were expressed as the logarithm of base 10 of the ratio between the CFU at each time point and the CFU at time 0. The detection limit of the method was ~1 log10 CFU mL^−1.

In series [2] the test system is S. cerevisiae. The experiment in a line: Time-kill assay, S. cerevisiae. The series is classed as cell-based, Saccharomyces cerevisiae. The following applies: 2×MIC, 405-nm light at 292 mW cm^−2. Here is the method: as §1, §2
Series [3] has as its system C. albicans. As to the kind of experiment: Development of resistance / cross-resistance in C. albicans (serial passage, single-step). The series is classed as cell-based. The following applies: Candida albicans, read-out: MIC of MM in antifungal-resistant C. albicans. As for the experimental part: FIG. 3: Evaluation of the development of resistance to MMs in C. albicans. For the stepwise resistance assessment by serial passage (left), C. albicans cell suspensions were treated with increasing concentrations (0.3125-160 μM) of different MMs (8 mM stock in DMSO) and then irradiated with […] light (87.6 J cm^−2). The irradiated cell suspensions were then inoculated in MOPS-buffered RPMI 1640 (pH 7.0, Sigma, MO, USA), and the tubes were incubated at 30 ° C for 48 h. […] Cells able to grow at 0.5×MIC of each MM were collected by centrifugation (5,000×g, 5 min), resuspended and re-challenged with a range of MM concentrations and irradiated with 405 nm light (87.6 J cm^−2). The procedure was repeated for a total of 20 consecutive cycles. […] Irradiated cells were then inoculated in YPD and incubated at 30 °C. However, MM-resistant colonies could not be recovered even after 14 days of incubation. Created with Biorender.com.
A modified version of the broth microdilution serial passage method was used to assess the development of resistance to visible-light-activated MMs in C. albicans (Kapoor et al., 2019). C. albicans cell suspensions were prepared and irradiated as previously described for the determination of MM MIC. Cells were then inoculated into buffered RPMI 1640 and incubated at 30 ° C for 48 h. Cells able to grow at 0.5×MIC of MM were centrifuged (5,000×g, 5 min), resuspended, rechallenged with different MM concentrations, and irradiated with 405-nm light (87.6 J cm^−2). The procedure was repeated for 20 consecutive cycles. The antifungals AMB, CAS, and FLC were processed similarly, except that light was omitted, and used as controls.

Series [4] relates to C. albicans. As to the kind of experiment: Lipid peroxidation (TBARS, MDA). As to conditions: 2×MIC. The series is classed as cell-based, Candida albicans. As for the experimental part:
(§3) Superoxide dismutase (SOD) activity was determined using a Superoxide Dismutase Assay Kit (Caymanchem, MI, USA) per the distributor's instructions. Lipid peroxidation was determined using a TBARS assay kit (TCA method) (Caymanchem, MI, USA) per the distributor's instructions. SOD activity and MDA levels were normalized by protein content determined by the Pierce assay (Pierce™ BCA Protein Assay Kit, Thermo Fisher Scientific, MA, USA).

Series [5] in a line: Estimated rotation rate after light activation. As to conditions: based on known motors with similar core skeletons.
For the next series, the system named is superoxide dismutase. As to the kind of experiment: Superoxide dismutase (SOD) activity. The series is classed as cell-based, Candida albicans. As to conditions: 0.5×MIC, p<0.05. Here is the method: as §3
In series [6] the test system is A. fumigatus. As to the kind of experiment: Time-kill assay, A. fumigatus. It is filed as cell-based, Aspergillus fumigatus. As to conditions: 2×MIC, 405-nm light at 292 mW cm^−2. As for the experimental part: as §1, §2
For series [7], the system named is C. albicans. The experiment in a line: MIC, visible-light-activated MMs and conventional antifungals, C. albicans. The series is classed as cell-based, Candida albicans (ATCC 18804). In outline:
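C. albicans suspensions (~10^4 CFU/mL in saline, CLSI) incubated 30 min in the dark with MMs, then irradiated with stirring at 405 nm, 292 mW cm^−2 for 5 min (87.6 J cm^−2). Cells then grown in MOPS-buffered RPMI 1640 (pH 7.0) at 30 °C for 48 h; MIC is lowest concentration with no visible growth; conventional antifungals tested likewise.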

In series [8] the test system is mature C. albicans biofilms. As to the kind of experiment: Biofilm biomass (crystal violet). The following applies: 2×, 4×MIC, vs DMSO, MMs with 87.6 J cm^−2 405-nm light. It is filed as cell-based, Candida albicans. Here is the method: (§4) The antibiofilm activity of MMs was investigated using 96-well microtiter plates with flat-bottom wells as a closed static biofilm reactor. This setup is reliable, inexpensive, easy to use and obtain, and requires no additional equipment (Pierce et al., 2010). Two parameters were used to evaluate antibiofilm activity: biofilm biomass and biofilm viability. Biofilm biomass was determined using the crystal violet method (Martins et al, 2010), a simple, inexpensive, and readily accessible method for determining biofilm biomass. However, because crystal violet binds both live and dead cells as well as extracellular polymeric substances, it cannot be used alone to reliably assess antibiofilm activity. To overcome this limitation, the XTT assay was used to evaluate biofilm viability (Nett et al., 2011). This assay is based on the reduction of the tetrazolium salt XTT to formazan by dehydrogenases in the mitochondrial electron transport chain of living cells. The resulting formazan can be easily detected by measuring the absorbance at 490 nm, which is proportional to the number of living cells, providing a reliable quantitative measurement of metabolically active cells in biofilms (Taff et al., 2012). […]
Biofilm biomass was determined by the crystal violet method, as previously described (Martins et al., 2010). […]

The subject of series [9] is C. albicans plasma membrane. As to the kind of experiment: Plasma membrane fluidity, DPH fluorescence. It is filed as cell-based, Candida albicans. Here is the method: The effects of MMs on C. albicans membrane dynamics were evaluated using DPH fluorescence (Kim et al., 2009). […] AMB-treated cells were used as controls. Samples were fixed with 0.37% formaldehyde and labeled with 0.6 mM DPH, as previously described (Kim et al., 2009). […] DPH fluorescence of untreated samples minus background was defined as 100% and used to calculate changes in treated samples.

Series [10] concerns S. cerevisiae. As to the kind of experiment: MIC, MMs and antifungals, S. cerevisiae. It is filed as cell-based, Saccharomyces cerevisiae (ATCC 13007). As to conditions: broth microdilution. As for the experimental part: (§5) Cell suspensions for susceptibility testing (MMs and conventional antifungals) were prepared per the Clinical & Laboratory Standards Institute (CLSI) guidelines (CLSI, 2017; CLSI, 2008). Before testing, yeasts (C. albicans and S. cerevisiae) were sub-cultured in Sabouraud Dextrose Agar-Emmons Modification (SDAE) plates and grown for 24 h at 30 °C. Five independent colonies from 24-h-old plates were collected and diluted to ~10^4 colony forming units (CFU) per mL in sterile saline (CLSI, 2017). Molds (A. fumigatus and the dermatophytes T. rubrum and M. gypseum) were sub-cultured on SDAE medium and incubated for 7 days at 28 °C. Conidia were recovered by covering the plates with sterile distilled water and scraping the colonies. The suspensions were filtered (8-μm pore size) and diluted in saline to ~10^4 CFU mL^−1 (Santos and Hamdan, 2005).
After a 30-min incubation in the dark, cell suspensions were transferred to small, sterilized glass beakers, which were then placed in a water bath. Each sample was irradiated with 405-nm light at 292 mW cm^−2 for 5 min, corresponding to a light dose of 87.6 J cm^−2, determined using an S415C thermal power sensor (Thorlabs, Newton, MA, USA). During irradiation, the cell suspensions were agitated with a small metal stirrer. A thermocouple probe (model SC-TT-K-30-36-PP; Omega Engineering, Inc., Stanford, CT, USA) was used to monitor the temperature during irradiation. Irradiated cell suspensions were inoculated in 3-(N-morpholino) propanesulfonic acid (MOPS)-buffered Roswell Park Memorial Institute Medium (RPMI) 1640 (pH 7.0). Tubes were incubated at 30 ° C for 48 h (yeasts) and 28 ° C for 7 days (molds). The antifungal or MM concentration resulting in no visible growth was defined as the minimum inhibitory concentration (MIC) (CLSI, 2017; CLSI, 2008). Similarly prepared cell suspensions were used to determine the MIC of conventional antifungals.

The subject of series [11] is A. fumigatus. As to the kind of experiment: MIC, MMs and antifungals, A. fumigatus. It is filed as cell-based, Aspergillus fumigatus (ATCC 1022). As to conditions: A. fumigatus, broth microdilution. Here is the method: as §5
After a 30-min incubation in the dark, cell suspensions were transferred to small, sterilized glass beakers, which were then placed in a water bath. Each sample was irradiated with 405-nm light at 292 mW cm^−2 for 5 min, corresponding to a light dose of 87.6 J cm^−2, determined using an S415C thermal power sensor (Thorlabs, Newton, MA, USA). During irradiation, the cell suspensions were agitated with a small metal stirrer. […]

The test system of series [12] is mature C. albicans biofilms. As to the kind of experiment: Biofilm viability (XTT assay). It is filed as cell-based, Candida albicans. As to conditions: 2×, 4×MIC, vs DMSO, MMs with 87.6 J cm^−2 405-nm light. As for the experimental part:
as §4, with “This assay is based on the reduction of the tetrazolium salt XTT to formazan by dehydrogenases in the mitochondrial electron transport chain of living cells.” left out
Biofilm viability was determined using an XTT cell viability assay kit (Biotium, Hayward, CA, USA) per the manufacturer's instructions. […] Normalized absorbance values were obtained by subtracting the background from the signal.

Series [13] concerns C. albicans. As to the kind of experiment: Influence of BAPTA-AM on MM-induced killing and intracellular calcium. The following applies: MM 1 2×MIC. It is filed as cell-based, Candida albicans. As for the experimental part: C. albicans cells were grown as described above and resuspended in HHBS (~10^6 CFU mL^−1). The cation chelator 1,2-bis(2-aminophenoxy) ethane-N,N,N′,N′-tetraacetic acid acetoxymethyl ester (BAPTA-AM) was then added (0.25-1 mM, final concentration) (Li et al., 2020). Unamended cells were used as controls. After a 30-min dark incubation at 30 ° C, the cells were centrifuged (5,000×g, 5 min), washed, and resuspended in HHBS. […] After 30 min, the cells were irradiated and processed as described for the time-kill experiments.

Take `C[C@@H]1Cc2ccc3ccccc3c2/C1=C1\c2ccccc2Sc2cc(NCCN3CCNCC3)ccc21` (mixture of isomers) [MM 7, 9-(2-methyl-2,3-dihydro-1H-cyclopenta[a]naphthalen-1-ylidene)-N-(2-(piperazin-1-yl)ethyl)-9H-thioxanthen-3-amine]: the “time to reduce cell numbers to limit of detection” value is 9 min in the series with C. albicans [1] (C. albicans, 2×MIC, 405-nm light at 292 mW cm^−2) and 9 min in the series on A. fumigatus [6]. Moreover, the “time to population eradication” value with S. cerevisiae [2] turned out to be 5 min. The MIC in the series with C. albicans [3] is 5 µM; in the series on C. albicans [7] (Candida albicans, read-out: MIC of MM) it was not above 5 µM. Also, the “lipid peroxidation product levels” value with C. albicans [4] is “increased levels of the lipid peroxidation product malonaldehyde”. The “estimated rotation rate after light activation” value in [5] is reported as 3 MHz. Further, in the series with superoxide dismutase, the superoxide dismutase activity entry was “increased superoxide dismutase activity”.

Turning to `C[C@@H]1[C@H](O)[C@@H](C)/C=C/C=C/C=C/C=C/C=C/C=C/C=C/[C@H](O[C@@H]2O[C@H](C)[C@@H](O)[C@H](N)[C@@H]2O)C[C@@H]2O[C@](O)(C[C@@H](O)C[C@@H](O)[C@H](O)CC[C@@H](O)C[C@@H](O)CC(=O)O[C@H]1C)C[C@H](O)[C@H]2C(=O)O` [Amphotericin B (AMB), Amphotericin B], in the series with C. albicans [1] (time-kill, FIG. 1D / FIG. 2, AMB at 4×MIC), the “effect on fungal cell number” value is recorded as “non-significant reduction in cell numbers”. For the same molecule, the “reduction of biofilm biomass” value in series [8] came out at 6%. Further, the DPH fluorescence entry in series [9] was “reduces DPH fluorescence”. The “MIC of antifungal agent” value stood at 0.5 µg/mL with S. cerevisiae [10]; 2 µg/mL in the series on A. fumigatus [11]; 1 µg/mL with C. albicans [7] (C. albicans, broth microdilution). The “reduction of biofilm viability” value in series [12] turned out to be 20%.

`CC(=O)OCOC(=O)CN(CC(=O)OCOC(C)=O)c1ccccc1OCCOc1ccccc1N(CC(=O)OCOC(C)=O)CC(=O)OCOC(C)=O` [BAPTA-AM, 1,2-bis(2-aminophenoxy) ethane-N,N,N′,N′-tetraacetic acid acetoxymethyl ester]: the “effect of calcium chelator on MM-induced cell death” value in the series with C. albicans [13] is “Mitigation of MM-induced cell death”.
